Patent publication US20140147860A1, “Acoustic Cytometry Methods and Protocols” (LIFE TECHNOLOGIES CORPORATION, priority 2011, published 2014)

Assays:
S. aureus cells = assay: Relative membrane potential in an S. aureus culture, BacLight Bacterial Membrane Potential Kit (DiOC2), flow cytometry; format: cell-based, Staphylococcus aureus; settings: SYTOX Blue-positive dead cells excluded, data not shown
[1] = tested on: Jurkat cells (T-cell leukemia, human); assay: Apoptosis detection with the Annexin V Dead Cell Apoptosis Kit by acoustic flow cytometry; format: cell-based; settings: 10 μM camptothecin for 4 hr, Annexin V staining, 488 nm excitation
Source text: Apoptotic plasma membrane assays for flow cytometry: Some of the earliest detectable apoptotic events involve the plasma membrane, including changes in membrane asymmetry and permeability. In addition to annexin V conjugates, Life Technologies provides unique assays to measure membrane changes under conditions where annexin V binding is problematic, such as in adherent cells, and without using special buffers. Annexin V conjugates In apoptotic cells, phosphatidylserine (PS) is translocated from the inner to the outer leaflet of the plasma membrane, thus exposing PS to the external cellular environment. Annexin V labeled with a fluorophore can identify apoptotic cells by binding to PS exposed on the outer leaflet of the membrane. The Alexa Fluor® series of dyes, used in Life Technologies Annexin V Dead Cell Apoptosis Kits provides brighter and more photostable bioconjugates than other organic dyes with similar spectral characteristics. Apoptosis detection with the Annexin V Dead Cell Apoptosis Kit. Jurkat cells (T-cell leukemia, human) treated with 10 μM camptothecin for 4 hr (B) or untreated control (A). Cells were stained using the Annexin V Dead Cell Apoptosis Kit and analyzed by flow cytometry with 488 nm excitation on the Attune® Acoustic Focusing Cytometer with 530/30 Xnm and 575/24 nm bandpass filters. Data were acquired with a standard 100 XμL/min collection rate. […]

Compound | red-shifted DiOC2 fluorescence (membrane potential), treated versus untreated sample (S. aureus cells) | percentage of apoptotic cells versus untreated control [1]
N#CC(C#N)=NNc1cccc(Cl)c1 [CCCP, carbonylcyanide 3-chlorophenylhydrazone] | increased red-shifted DiOC2 fluorescence in the untreated sample (−CCCP, green) as compared to the CCCP-treated sample | 
CC[C@@]1(O)C(=O)OCc2c1cc1n(c2=O)Cc2cc3ccccc3nc2-1 [camptothecin] |  | higher percentage of apoptotic cells
